Earlier results on 14 molecules are cited in publication PMC7904743, “WIDOCK: a reactive docking protocol for virtual screening of covalent inhibitors” (Journal of Computer-Aided Molecular Design, 2021).

SMILES strings stand for the structures. Like-named read-outs stand apart in the source and are kept apart here.

One data set concerns OTUB2. The note with it: experimental actives if % labeling higher than 50%, cited from earlier work.
For data set [1] the following is noted: thiol reactivity, cited from earlier work.
The test system of a further data set is NUDT7. The note with it: protein labeling at 200 μM; experimental actives if % labeling higher than 50%; cited from earlier work.
Setting [2] is: natural log of average rate constant k.
Where [3] appears, read: natural logarithm of average rate constant.
Setting [4] is: natural log of average kinetic rate constant.
Setting [5] is: natural log of average rate constant.

Turning to `O=C(CCl)Nc1ccc(Cl)cc1C(=O)O` [PCM-0102127, O=C(CCl)Nc1ccc(Cl)cc1C(=O)O], the OTUB2 % labeling in the data set on OTUB2 is 10%. The “ln(avg k)” value in data set [1] (setting [2]) and in data set [1] (setting [3]) was -16.749 each time. The NUDT7 % labeling with NUDT7 is reported as 0%.
For the molecule `CC(C)(C)OC(=O)N1CCN(C(=O)CCl)CC1` [PCM-0102786, CC(C)(C)OC(=O)N1CCN(C(=O)CCl)CC1], in the data set with OTUB2 (OTUB2 protein labeling), the OTUB2 % labeling is 0%. Besides, the “ln(avg k)” value in data set [1] (setting [4]) and in data set [1] (setting [5]) was -15.946 in each case. Moreover, the NUDT7 % labeling in the data set on NUDT7 is listed as 0%.
For `CC(NC(=O)CCl)c1ccccc1` (centres unmarked) [PCM-0102128, CC(NC(=O)CCl)c1ccccc1], the OTUB2 % labeling with OTUB2 was 42%. Besides, the “ln(avg k)” value in data set [1] (setting [2]) and in data set [1] (setting [3]) was -16.398 throughout. Moreover, the NUDT7 % labeling with NUDT7 was 13%.
On to `CC1CCN(C(=O)CCl)CC1` [PCM-0102945, CC1CCN(C(=O)CCl)CC1], for which, in the data set with OTUB2 (OTUB2 protein labeling), the OTUB2 % labeling was 0%. Also, the “ln(avg k)” value in data set [1] (setting [4]) and in data set [1] (setting [5]) was -16.826 throughout. Moreover, the NUDT7 % labeling in the data set on NUDT7 was 0%.
With `CN(Cc1ccsc1)C(=O)CCl` [PCM-0102865, CN(Cc1ccsc1)C(=O)CCl], in the data set with OTUB2 (OTUB2 protein labeling), the OTUB2 % labeling is 0%. Moreover, the “ln(avg k)” value in data set [1] (setting [4]) and in data set [1] (setting [5]) was -16.224 in each case. Also, the NUDT7 % labeling in the data set with NUDT7 was 9%.
As to `O=C(CCl)Nc1ccc(Br)cc1Cl` [PCM-0102505, O=C(CCl)Nc1ccc(Br)cc1Cl], the OTUB2 % labeling in the data set with OTUB2 was 7%. Also, the “ln(avg k)” value in data set [1] (setting [2]) and in data set [1] (setting [3]) was -16.521 throughout. For the same molecule, the NUDT7 % labeling with NUDT7 was 59%.
Regarding `Cc1ccc(CN(C)C(=O)CCl)cc1` [PCM-0103017, Cc1ccc(CN(C)C(=O)CCl)cc1], the OTUB2 % labeling in the data set on OTUB2 (OTUB2 protein labeling) was 0%. Moreover, the “ln(avg k)” value in data set [1] (setting [4]) and in data set [1] (setting [5]) was -16.138 throughout. Further, the NUDT7 % labeling with NUDT7 is reported as 9%.
For the molecule `CC(NC(=O)CCl)c1ccc(Cl)c(Cl)c1` (centres unmarked) [PCM-0102096, CC(NC(=O)CCl)c1ccc(Cl)c(Cl)c1], the OTUB2 % labeling in the data set on OTUB2 is reported as 26%. For the same molecule, the “ln(avg k)” value in data set [1] (setting [2]) and in data set [1] (setting [3]) was -16.200 throughout. Besides, in the data set with NUDT7, the NUDT7 % labeling was 51%.
As for `Cc1cc(N2CCN(C(=O)CCl)CC2)nc(C(C)C)n1` [PCM-0102638, Cc1cc(N2CCN(C(=O)CCl)CC2)nc(C(C)C)n1], the OTUB2 % labeling in the data set with OTUB2 is recorded as 0%. The “ln(avg k)” value in data set [1] (setting [2]) and in data set [1] (setting [3]) was -16.816 each time. Besides, the NUDT7 % labeling in the data set with NUDT7 was 0%.
As for `COC(=O)c1cc(NC(=O)CCl)cn1C` [PCM-0102545, COC(=O)c1cc(NC(=O)CCl)cn1C], in the data set on OTUB2, the OTUB2 % labeling is reported as 33%. In addition, the “ln(avg k)” value in data set [1] (setting [2]) and in data set [1] (setting [3]) was -15.579 throughout. The NUDT7 % labeling in the data set on NUDT7 is recorded as 0%.
With `O=C(CCl)N1CCN(S(=O)(=O)c2ccc(Cl)s2)CC1` [PCM-0102121, O=C(CCl)N1CCN(S(=O)(=O)c2ccc(Cl)s2)CC1], the OTUB2 % labeling with OTUB2 was 0%. The “ln(avg k)” value in data set [1] (setting [2]) and in data set [1] (setting [3]) was -15.220 throughout. The NUDT7 % labeling with NUDT7 is listed as 15%.
As for `O=C(CCl)Nc1cc2c(cc1Cl)OCCCO2` [PCM-0102331, O=C(CCl)Nc1cc2c(cc1Cl)OCCCO2], the OTUB2 % labeling in the data set with OTUB2 is recorded as 26%. Also, the “ln(avg k)” value in data set [1] (setting [2]) and in data set [1] (setting [3]) was -16.178 throughout. For the same molecule, the NUDT7 % labeling with NUDT7 was 36%.
As to `CC(c1nc2ccccc2s1)N(C)C(=O)CCl` (centres unmarked) [PCM-0102793, CC(c1nc2ccccc2s1)N(C)C(=O)CCl], in the data set on OTUB2 (OTUB2 protein labeling), the OTUB2 % labeling is recorded as 19%. Besides, the “ln(avg k)” value in data set [1] (setting [4]) and in data set [1] (setting [5]) was -15.755 in each case. In addition, the NUDT7 % labeling in the data set on NUDT7 is listed as 0%.
As to `O=C(CCl)NCc1ccco1` [PCM-0102671, O=C(CCl)NCc1ccco1], the OTUB2 % labeling in the data set with OTUB2 is recorded as 35%. In addition, the “ln(avg k)” value in data set [1] (setting [2]) and in data set [1] (setting [3]) was -16.464 each time. Further, the NUDT7 % labeling in the data set on NUDT7 was 0%.
